According to patent publication US8173423B2, “Diagnosis and treatment of T-cell acute lymphoblastic leukemia” (VIB VZW, priority 2006, dated 2012):
Non-standard residues stand in square brackets, D forms with d. Residues, ends and D or L forms follow the SMILES beside them. *: point of attachment. Nle = CCCC[C@H](N)C(=O)O; Cbz = O=C(OCc1ccccc1)*

Experiments:
MOLT-4 = details: reference 4; cited from earlier work
T-ALL cells = details: Miele 2006; cited from earlier work
RPMI-8402 cells [1] = experiment: Proliferation, viability and cell cycle of T-ALL cell line (viable cell count, FACS); assay type: cell-based, human; details: for proliferation: proliferation period of 3 days
Procedure: (§1) DND-41, HSB-2, RPMI-8402, ALL-SIL, MOLT-4, LOUCY, P12-ICHIKAWA, CCRF-CEM (DSMZ, Braunschweig, Germany) were cultured in RPMI-1640 supplemented with 20% fetal calf serum. The number or percentage of viable cells was counted with a Vi-cell XR cell viability analyzer (Beckman Coulter, Fullerton, Calif.). For differentiation experiments, cells were cultured during a period of 6 days and electroporated on the first day and again on the 4th day with 50 nM siRNA. MYB stealth select siRNAs were purchased from Invitrogen (Carlsbad, Calif.). […] Electroporation with a stealth siRNA directed against ERBB4 (Invitrogen, Carlsbad, Calif.), a gene not expressed in these cell lines, served as a control. […] For inhibition of NOTCH1, we treated the cell ines with 1 μM of Compound E (gamma-secretase inhibitor XXI, Calbiochem, San Diego, Calif.) or DMSO (control). The percentage proliferation was calculated by comparing the increase of the number of viable cells from treated cells to the increase of the number of viable cells treated with DMSO and electroporated with a control siRNA, and this for a proliferation period of 3 days.
(§2) Analysis of CD1a, CD3, CD4 and CD8 expression and cell cycle analysis was performed on 0.3-1×10^6 cells 6 days after the first electroporation with siRNA. We used the PE/CD1a, and the TriTEST CD4 FITC/CD8 PE/CD3 PerCP Reagent kit (Becton Dickinson, San Jose, Calif.) and the CycleTEST™ PLUS DNA Reagent Kit (Becton Dickinson). After staining, the cells were detected on a FACSCanto Flow Cytometer (Becton Dickinson) and the data were analyzed with the BD FACSDiva software (Becton Dickinson). Unstained cells and cells treated with ERBB4 siRNA were used as controls. Cell sorting was performed after staining of the cells with the TriTEST CD4/CD8/CD3 kit. Cells were separated into two fractions (differentiated and undifferentiated) using the FACSVantage SE system (Becton Dickinson).
(§3) Cell lines were electroporated every four days with 50-250 nM siRNA. MYB stealth select siRNAs (MYB-HSS106819) were purchased from Invitrogen (Carlsbad, Calif.).

ALL-SIL cells [2] = experiment: as above; assay type: cell-based, human; details: for proliferation: proliferation period of 3 days
Procedure: as §1, §2, §3

RPMI-8402 = details: reference 4; cited from earlier work
ALL-SIL = details: reference 4; cited from earlier work
[3] = tested on: Ras-transformed fibroblasts; details: Miele 2006; cited from earlier work
melanoma cell lines = details: Miele 2006; cited from earlier work
melanoma xenografts = details: Miele 2006; cited from earlier work
MYB = experiment: Knockdown of MYB expression by siRNA electroporation, protein blot analysis; assay type: cell-based, human; details: among MYB stealth select siRNAs
Procedure: FIG. 1: Effect of knockdown of MYB expression on T-ALL cell lines. (a) Protein blot analysis showing that electroporation of three different MYB siRNAs in RPMI-8402 cells causes a decrease of MYB expression, compared with electroporation with no siRNA or control siRNA (ERBB4). […] Control cells were treated with dimethylsulfoxide or a control siRNA. Error bars indicate s.e.m.
DND-41, HSB-2, RPMI-8402, ALL-SIL, MOLT-4, LOUCY, P12-ICHIKAWA, CCRF-CEM (DSMZ, Braunschweig, Germany) were cultured in RPMI-1640 supplemented with 20% fetal calf serum. The number or percentage of viable cells was counted with a Vi-cell XR cell viability analyzer (Beckman Coulter, Fullerton, Calif.). For differentiation experiments, cells were cultured during a period of 6 days and electroporated on the first day and again on the 4th day with 50 nM siRNA. MYB stealth select siRNAs were purchased from Invitrogen (Carlsbad, Calif.). […] Electroporation with a stealth siRNA directed against ERBB4 (Invitrogen, Carlsbad, Calif.), a gene not expressed in these cell lines, served as a control. […] The percentage proliferation was calculated by comparing the increase of the number of viable cells from treated cells to the increase of the number of viable cells treated with DMSO and electroporated with a control siRNA, and this for a proliferation period of 3 days. […]

MOLT-4 cells = experiment: Differentiation of T-ALL cell line after MYB knockdown (FACS of CD1a, CD3, CD4, CD8); assay type: cell-based, human
Procedure: as §1, §2

RPMI-8402 cells [4] = experiment: as above; assay type: cell-based, human
Procedure: as §1, §2

ALL-SIL cells [5] = experiment: as above; assay type: cell-based, human
Procedure: as §1, §2

[6] = siRNA electroporation and/or 1 μM Compound E, vs DMSO and control siRNA
[7] = 50 nM siRNA electroporated day 1 and day 4, 6 days
[8] = flow-sorted cells analysed 10 d later

In the case of `C[C@H](NC(=O)Cc1cc(F)cc(F)c1)C(=O)N[C@H]1N=C(c2ccccc2)c2ccccc2N(C)C1=O` [Compound E, (S, S)-2-[2-(3,5-Difluorophenyl)-acetylamino]-N-(1-methyl-2-oxo-5-phenyl-2,3-dihydro-1H-benzo[e][1,4]diazepin-3-yl)-propionamide], the “sensitivity to GSI treatment” value (MOLT-4) is given as “not sensitive”, the growth (T-ALL cells) is given as “causes growth arrest” and the proliferation (RPMI-8402 cells [1]; [6]) is given as “inhibition of the proliferation”. The proliferation (ALL-SIL cells [2]; [6]) was “inhibition of the proliferation”, the proliferation (RPMI-8402) was “inhibit the proliferation” and the proliferation (ALL-SIL) was “inhibit the proliferation”.

For `CCC(C)C(NC(=O)OCc1ccccc1)C(=O)NC(C=O)CC(C)C` (stereo not drawn) [cbz-IL-CHO] (Cbz-Ile-Leu-aldehyde; configuration not given here), the antineoplastic activity [3] is given as “Notch-1—dependent antineoplastic activity”.

In the case of `CCCC[C@@H](C=O)NC(=O)[C@H](CC(C)C)NC(=O)[C@H](CC(C)C)NC(=O)OCc1ccccc1` [z-Leu-leu-Nle-CHO] (Cbz-Leu-Leu-[Nle]-aldehyde), the apoptosis (melanoma cell lines) is listed as “induces apoptosis” and the apoptosis (melanoma xenografts) is listed as “induces apoptosis”.

With “MYB siRNA 1: MYB stealth select siRNA (Invitrogen), sequence 5′UAUAGUGUCUCUGAAUGGCUGCGGC (SEQ ID NO:1) with complementary strand SEQ ID NO:2 (chain 2 GCCGCAGCCAUUCAGAGACACUAUA; Invitrogen Stealth Select siRNA, chemistry not given here)” the “efficiency of siRNA” value (MYB) was “most efficient”, the cell cycle (RPMI-8402 cells [1]; siRNA electroporation) was “only a limited effect” and the proliferation (RPMI-8402 cells [1]; [6]) was “only a limited effect”. The “viability / cell survival” value (RPMI-8402 cells [1]; [6]) was “only a limited effect”, the cell cycle (ALL-SIL cells [2]; siRNA electroporation) was “only a limited effect” and the proliferation (ALL-SIL cells [2]; [6]) was “only a limited effect”. The “viability / cell survival” value (ALL-SIL cells [2]; [6]) was “only a limited effect”, the “differentiation (changes in expression of CD1a, CD3, CD4 or CD8 cell surface markers)” value (MOLT-4 cells; [7]) was “results in the differentiation” and the reversibility of differentiation (MOLT-4 cells; [8]) was “irreversible”. For the same molecule, the “differentiation (changes in expression of CD1a, CD3, CD4 or CD8 cell surface markers)” value (RPMI-8402 cells [4]; [7]) was “results in the differentiation”, the reversibility of differentiation (RPMI-8402 cells [4]; [8]) was “irreversible” and the “differentiation (changes in expression of CD1a, CD3, CD4 or CD8 cell surface markers)” value (ALL-SIL cells [5]; [7]) was “results in the differentiation”. For the same molecule, the reversibility of differentiation (ALL-SIL cells [5]; [8]) was “irreversible”.
